The values that follow come from patent publication US9839642B2, “Beta-tetrazolyl-propionic acids as metallo-beta-lactamase inhibitors” (priority 2014, dated 2017).

One test addresses IMP-1 (Serratia marcescens, UniProt P52699). As to the kind of experiment: Enzyme activity: determination of IC50, fluorescence assay with CCF2-FA substrate. Format: biochemical. The settings on record: IMP-1 enzyme 2 pM, CCF2-FA 1.25 μM, 2 hours at 25° C.; read-out: IMP1 IC50. In outline:
(§1)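 Read-out: fluorescence, ex 405 nm / em 460 nm, after 2 h at 25° C with 1.25 μM CCF2-FA. Buffer 100 mM KH2PO4 pH 7, 0.005% Tween-20, 10 μM ZnSO4; enzyme 1 pM NDM-1, 2 pM IMP-1, 30 pM VIM-1. IC50 by 4-parameter fit.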

The next test has as its target NDM-1 (Klebsiella pneumoniae, UniProt C7C422). The description is as above. Format: biochemical. To be noted: NDM-1 enzyme 1 pM, CCF2-FA 1.25 μM, 2 hours at 25° C.; read-out: NDM1 IC50. The gist of the method:
as §1

The target of a further test is VIM-1 (Pseudomonas aeruginosa, UniProt A0A0F7KYQ8). The description is as above. Format: biochemical. To be noted: VIM-1 enzyme 30 pM, CCF2-FA 1.25 μM, 2 hours at 25° C.; read-out: VIM1 IC50. The gist of the method: as §1
Test [1] has as its system Escherichia coli expressing NDM-1 (CLB30016). As to the kind of experiment: Antibiotic potentiation activity: synergistic concentration (MITC95) with imipenem, growth by OD600. Format: cell-based. The settings on record: E. coli CLB30016 (NDM-1), 95% inhibition of growth. The gist of the method: (§2)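 Strains grown overnight at 35° C, resuspended in saline, diluted 1:100 into 1.1×CAMHB; imipenem at 1 μg/ml or 4 μg/ml with test compound 200 μM to 0.195 μM. Incubated 22 hours to 24 hours at 35° C, OD600 read; MITC95 is lowest compound concentration inhibiting 95% of growth.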

For test [2], the system named is Klebsiella pneumoniae expressing VIM-1 (IHMA599644). The description is as above. Format: cell-based. The settings on record: K. pneumoniae IHMA599644 (VIM-1), 95% inhibition of growth. The gist of the method: as §2
Test [3] concerns Serratia marcescens expressing IMP-1 (CL5741). The description is as above. Format: cell-based. The settings on record: S. marcescens CL5741 (IMP-1), 95% inhibition of growth. The gist of the method:
as §2

Chain of IMP-1 (P52699 19-246, looked up, species assumed): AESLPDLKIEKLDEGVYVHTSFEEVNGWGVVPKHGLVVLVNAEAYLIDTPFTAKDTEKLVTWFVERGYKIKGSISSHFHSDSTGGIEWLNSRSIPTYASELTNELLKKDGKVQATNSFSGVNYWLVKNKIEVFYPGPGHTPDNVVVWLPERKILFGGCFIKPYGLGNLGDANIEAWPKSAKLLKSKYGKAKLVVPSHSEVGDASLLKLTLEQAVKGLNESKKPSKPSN
Chain of NDM-1 (C7C422 29-270, looked up, species assumed): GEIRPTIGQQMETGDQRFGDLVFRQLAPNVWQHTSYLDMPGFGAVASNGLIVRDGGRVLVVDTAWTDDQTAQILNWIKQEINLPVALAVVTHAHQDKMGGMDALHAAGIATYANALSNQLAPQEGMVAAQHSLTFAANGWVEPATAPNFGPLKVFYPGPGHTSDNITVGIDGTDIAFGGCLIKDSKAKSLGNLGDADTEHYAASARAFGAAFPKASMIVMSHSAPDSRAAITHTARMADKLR

As a reminder, the IC50 is the midpoint of a concentration-inhibition curve. In the case of `CCC[C@H](C(=O)O)[C@H](Cc1ccc(C2(O)CCNC2)cc1)c1nnn[nH]1.O=C(O)C(F)(F)F` (stereo partly drawn) [Example 432, 3-(4-((2S,3S)-3-carboxy-2-(1H-tetrazol-5-yl)hexyl)phenyl)-3-hydroxypyrrolidin-1-ium 2,2,2-trifluoroacetate], the IC50 was 1.01 µM on IMP-1, 0.141 µM at NDM-1 and 0.00558 µM on VIM-1. Besides, in test [1], the “NDM1 EC30016 MITC95” value came to 9.375 µM. Besides, the “VIM1 KP599644 MITC95” value in test [2] came out at 12.5 µM. Moreover, the “IMP1 SM5741 MITC95” value in test [3] turned out to be 12.5 µM.
Consider `O=C(O)[C@@H](CCCC1CCNCC1)[C@H](Cc1ccc(C2=CCNC2)cc1)c1nnn[nH]1` [Example 433, (S)-2-((S)-2-(4-(2,5-dihydro-1H-pyrrol-3-yl)phenyl)-1-(1H-tetrazol-5-yl)ethyl)-5-(piperidin-4-yl)pentanoic acid compound with 222,-trifluroacetic acid (1:2)], for which the IC50 turned out to be 2 µM at IMP-1, 0.0869 µM on NDM-1 and 0.0101 µM on VIM-1. The “NDM1 EC30016 MITC95” value in test [1] was determined as 12.5 µM. The “VIM1 KP599644 MITC95” value in test [2] stood at 12.5 µM. Besides, the “IMP1 SM5741 MITC95” value in test [3] turned out to be 100 µM.
Consider `O=C(O)[C@@H](CCCC1CCNCC1)[C@H](Cc1ccc(C2CCNC2)cc1)c1nnn[nH]1` (stereo partly drawn) [Example 434, (2S)-5-(piperidin-4-yl)-2-((1S)-2-(4-(pyrrolidin-3-yl)phenyl)-1-(1H-tetrazol-5-yl)ethyl)pentanoic acid 2,2,2-trifluoroacetate (1:2)], for which the IC50 on IMP-1 turned out to be 2 µM; on NDM-1 it was 0.0679 µM; at VIM-1 it was 0.0166 µM. Moreover, the “NDM1 EC30016 MITC95” value in test [1] was 12.5 µM. In addition, in test [2], the “VIM1 KP599644 MITC95” value came to 25 µM. In addition, the “IMP1 SM5741 MITC95” value in test [3] worked out at 100 µM.
Consider `Nc1ccc(C[C@H](c2nnn[nH]2)[C@H](CC(F)(F)F)C(=O)O)cn1` [Example 435, (S)-2-((S)-2-(6-aminopyridin-3-yl)-1-(1H-tetrazol-5-yl)ethyl)-4,4,4-trifluorobutanoic acid], for which the values for the IC50 on IMP-1, at NDM-1 and on VIM-1 were 7.74 µM, 0.432 µM and 0.0136 µM, respectively. In addition, the “NDM1 EC30016 MITC95” value in test [1] turned out to be 0.7813 µM. Besides, the “VIM1 KP599644 MITC95” value in test [2] came to 2.344 µM. Further, the “IMP1 SM5741 MITC95” value in test [3] turned out to be 50 µM.
Consider `O=C(O)[C@@H](CC(F)(F)F)[C@H](Cc1ccc(NCCO)nc1)c1nnn[nH]1` [Example 436, (S)-4,4,4-trifluoro-2-((S)-2-(6-((2-hydroxyethyl)amino)pyridin-3-yl)-1-(1H-tetrazol-5-yl)ethyl)butanoic acid], for which the IC50 was 8.29 µM at IMP-1, 1.05 µM at NDM-1 and 0.054 µM on VIM-1. In addition, the “NDM1 EC30016 MITC95” value in test [1] came to 2.344 µM. For the same compound, in test [2], the “VIM1 KP599644 MITC95” value was determined as 25 µM. In addition, the “IMP1 SM5741 MITC95” value in test [3] was 100 µM.
Consider `CCC[C@H](C(=O)O)[C@H](Cc1ccc2c(c1)CNC2)c1nnn[nH]1` [Example 437, (S)-2-((S)-2-(isoindolin-5-yl)-1-(1H-tetrazol-5-yl)ethyl)pentanoic acid compound with 2,2,2-trifluoroacetic acid (1:1)], for which the 50% inhibitory concentration (IC50) is 11.4 µM at IMP-1, 0.533 µM at NDM-1 and 0.00173 µM at VIM-1. Besides, the “NDM1 EC30016 MITC95” value in test [1] was found to be 4.688 µM. In addition, the “VIM1 KP599644 MITC95” value in test [2] turned out to be 6.25 µM. In test [3], the “IMP1 SM5741 MITC95” value was 150 µM.
With `CC(C)C[C@H](C(=O)O)[C@H](Cc1ccc(CCN2CCCCC2=O)c(F)c1)c1nn[nH]n1` [Example 438, (S)-2-((S)-2-(3-fluoro-4-(2-(2-oxopiperidin-1-yl)ethyl)phenyl)-1-(2H-tetrazol-5-yl)ethyl)-4-methylpentanoic acid], the IC50 was found to be 0.00484 µM on IMP-1, 0.0134 µM on NDM-1 and 0.00157 µM at VIM-1. For the same compound, in test [1], the “NDM1 EC30016 MITC95” value came to 25 µM. Further, the “VIM1 KP599644 MITC95” value in test [2] amounted to 75 µM. The “IMP1 SM5741 MITC95” value in test [3] was 1.172 µM.
On to `CC(C)C[C@H](C(=O)O)[C@H](Cc1ccc(CN2CCC(O)C2)c(F)c1)c1nn[nH]n1.O=C(O)C(F)(F)F` (stereo partly drawn) [Example 439, 5-((2S,3S)-3-carboxy-1-(3-fluoro-4-((3-hydroxypyrrolidin-1-yl)methyl)phenyl)-5-methylhexan-2-yl)-2H-tetrazol-3-ium 2,2,2-trifluoroacetate], for which the IC50 at IMP-1 was determined as 0.483 µM; on NDM-1, 0.225 µM; at VIM-1, 0.00432 µM. Further, the “NDM1 EC30016 MITC95” value in test [1] was determined as 31.25 µM. In addition, the “VIM1 KP599644 MITC95” value in test [2] was found to be 37.5 µM. The “IMP1 SM5741 MITC95” value in test [3] is 37.5 µM.
Take `CC(C)C[C@H](C(=O)O)[C@H](Cc1ccc(CCCN)c(F)c1)c1nn[nH]n1.O=C(O)C(F)(F)F` [Example 440, 5-((2S,3S)-1-(4-(3-aminopropyl)-3-fluorophenyl)-3-carboxy-5-methylhexan-2-yl)-2H-tetrazol-3-ium 2,2,2-trifluoroacetate]: the figures for the half-inhibitory concentration (IC50) at IMP-1, on NDM-1 and on VIM-1 were 0.124 µM, 0.0375 µM and 0.00162 µM, respectively. Further, in test [1], the “NDM1 EC30016 MITC95” value amounted to 6.25 µM. Further, in test [2], the “VIM1 KP599644 MITC95” value is 12.5 µM. Further, the “IMP1 SM5741 MITC95” value in test [3] is 6.25 µM.
`CC(C)C[C@H](C(=O)O)[C@H](Cc1ccc(COCCN2CCNCC2)c(F)c1)c1nn[nH]n1.O=C(O)C(F)(F)F` [Example 441, 5-((2S,3S)-3-carboxy-1-(3-fluoro-4-((2-(piperazin-1-yl)ethoxy)methyl)phenyl)-5-methylhexan-2-yl)-4422H-tetrazol-3-ium 2,2,2-trifluoroacetate]: the IC50 on IMP-1 stood at 0.214 µM; at NDM-1, 0.113 µM; at VIM-1, 0.0197 µM. Moreover, the “NDM1 EC30016 MITC95” value in test [1] came to 25 µM. The “VIM1 KP599644 MITC95” value in test [2] was determined as 50 µM. For the same compound, the “IMP1 SM5741 MITC95” value in test [3] worked out at 18.75 µM.
Consider `CC(C)C[C@H](C(=O)O)[C@H](Cc1ccc(COCC2CCNCC2)c(F)c1)c1nn[nH]n1.O=C(O)C(F)(F)F` [Example 442, 5-((2S,3S)-3-carboxy-1-(3-fluoro-4-((piperidin-4-ylmethoxy)methyl)phenyl)-5-methylhexan-2-yl)-2H-tetrazol-3-ium 2,2,2-trifluoroacetate], for which the values for the IC50 on IMP-1, on NDM-1 and at VIM-1 were 0.11 µM, 0.0747 µM and 0.00873 µM, respectively. Moreover, the “NDM1 EC30016 MITC95” value in test [1] worked out at 12.5 µM. The “VIM1 KP599644 MITC95” value in test [2] amounted to 25 µM. Further, in test [3], the “IMP1 SM5741 MITC95” value came to 6.25 µM.
Consider `CC(C)C[C@H](C(=O)O)[C@H](Cc1ccc(CN(C)C)c(F)c1)c1nn[nH]n1.O=C(O)C(F)(F)F` [Example 443, 1-(4-((2S,3S)-3-carboxy-5-methyl-2-(2H-tetrazol-5-yl)hexyl)-2-fluorophenyl)-N,N-dimethylmethanaminium 2,2,2-trifluoroacetate], for which the IC50 was 1.06 µM at IMP-1, 0.298 µM on NDM-1 and 0.00429 µM on VIM-1. The “NDM1 EC30016 MITC95” value in test [1] amounted to 12.5 µM. For the same compound, the “VIM1 KP599644 MITC95” value in test [2] amounted to 25 µM. The “IMP1 SM5741 MITC95” value in test [3] worked out at 37.5 µM.
For the compound `CC(C)C[C@H](C(=O)O)[C@H](Cc1ccc(CN2CCC(N)CC2)c(F)c1)c1nn[nH]n1.O=C(O)C(F)(F)F` [Example 444, 1-(4-((2S,3S)-3-carboxy-5-methyl-2-(2H-tetrazol-5-yl)hexyl)-2-fluorobenzyl)piperidin-4-aminium 2,2,2-trifluoroacetate], the IC50 turned out to be 0.216 µM at IMP-1, 0.0829 µM at NDM-1 and 0.0765 µM on VIM-1. The “NDM1 EC30016 MITC95” value in test [1] was 9.375 µM. For the same compound, the “VIM1 KP599644 MITC95” value in test [2] is 25 µM. For the same compound, in test [3], the “IMP1 SM5741 MITC95” value was 12.5 µM.
As for `CC(C)C[C@H](C(=O)O)[C@H](Cc1ccc(CCN)c(F)c1)c1nn[nH]n1.O=C(O)C(F)(F)F` [Example 445, 2-(4-((2S,3S)-3-carboxy-5-methyl-2-(2H-tetrazol-5-yl)hexyl)-2-fluorophenyl)ethanaminium 2,2,2-trifluoroacetate], the results for the IC50 on IMP-1, at NDM-1 and at VIM-1 were 0.693 µM, 0.281 µM and 0.00198 µM, respectively. Also, in test [1], the “NDM1 EC30016 MITC95” value amounted to 9.375 µM. In test [2], the “VIM1 KP599644 MITC95” value was found to be 12.5 µM. The “IMP1 SM5741 MITC95” value in test [3] amounted to 25 µM.
Consider `CC(C)C[C@H](C(=O)O)[C@H](Cc1ccc(CN2CCNCC2)c(F)c1)c1nn[nH]n1.O=C(O)C(F)(F)F` [Example 446, 4-(4-((2S,3S)-3-carboxy-5-methyl-2-(2H-tetrazol-5-yl)hexyl)-2-fluorobenzyl)piperazin-1-ium 2,2,2-trifluoroacetate], for which the values for the IC50 at IMP-1, on NDM-1 and on VIM-1 were 0.38 µM, 0.17 µM and 0.00694 µM, respectively. In test [1], the “NDM1 EC30016 MITC95” value came to 12.5 µM. Also, the “VIM1 KP599644 MITC95” value in test [2] came to 25 µM. The “IMP1 SM5741 MITC95” value in test [3] came to 18.75 µM.
